# Experiments:
# Assay in all cases: NCI in vitro anticancer screen, SRB assay, 48 h, panel average
# Type in all cases: cell-based, human
# Details in all cases: average of six to eight cell lines, 48 h exposure
# [1] = tested on: Melanoma cancer cell lines
# Protocol: (§1) Biological Activity: The in vitro cell line studies were carried out at the National Cancer Institute, Maryland, USA.
# (§2) Cytotoxicity: • The compounds 6b) 7-Methoxy-8-{4-[1-(4-fluorophenyl)-3-(4-hydroxy-3-methoxyphenyl)-2-propen-1-one]butyl}-oxy-(11aS)-1,2,3,11a-5H-pyrrolo[2,1-c][1,4]benzodiazepin-5-one; • (6c) 7-Methoxy-8-{5-[1-(4-fluorophenyl)-3-(4-hydroxy-3-methoxyphenyl)-2-propen-1-one]pentyl}-oxy-(11aS)-1,2,3,11a-5H-pyrrolo[2,1-c][1,4]benzodiazepin-5-one; • (6g) 7-Methoxy-8-{3-[1-(2-hydroxyphenyl)-3-(4-hydroxy-3-methoxyphenyl)-2-propen-1-one]propyl}-oxy-(11aS)-1,2,3,11a-5H-pyrrolo[2,1-c][1,4]benzodiazepin-5-one; • (10a) 7-Methoxy-8-{3-[3-(4-hydroxy-3-methoxyphenyl)-1-(2,4-dimethyl-3-quinolyl)-2-propen-1-one]propyl}-oxy-(11aS)-1,2,3,11a-5H-pyrrolo[2,1-c][1,4]benzodiazepin-5-one • (10b) 7-Methoxy-8-{4-[3-(4-hydroxy-3-methoxyphenyl)-1-(2,4-dimethyl-3-quinolyl)-2-propen-1-one]butyl}-oxy-(11aS)-1,2,3,11a-5H-pyrrolo[2,1-c][1,4]benzodiazepin-5-one; were evaluated for in vitro anticancer activity against […] derived from […] (leukemia, ovarian, renal, melanoma, CNS, colon, prostate, lung, cervix and breast cancer) as shown in (Table 1, 2 and 3)
# (§3) 6b, 6c, 6g, 10a and 10b were evaluated for in vitro anticancer activity against sixty human tumour cells derived from nine cancer types (leukemia, non-small-cell lung, colon, CNS, melanoma, ovarian, prostate, renal and breast cancer) as shown in (Table 1 and 2). For the compound, dose response curves for each cell line were measured at a minimum of five concentrations at 10 fold dilutions. A protocol of 48 h continuous drug exposure was used and a sulforhodamine B (SRB) protein assay was used to estimate cell viability or growth. The concentration causing 50% cell growth inhibition (GI50), total cell growth inhibition (TGI 0% growth) and 50% cell death (LC50, −50% growth) compared with the control was calculated.
# (§4) Each cancer type represents the average of six to eight different cancer cell lines.
# [2] = tested on: Ovarian cancer cell lines
# Protocol: as §1, §2, §3, §4
# Renal cancer cell lines = tested on: Renal cancer cell lines
# Protocol: as §1, §2, §3, §4
# Colon cancer cell lines = tested on: Colon cancer cell lines
# Protocol: as §1, §2, §3, §4
# Breast cancer cell lines = tested on: Breast cancer cell lines
# Protocol: as §1, §2, §3, §4
# CNS cancer cell lines = tested on: CNS cancer cell lines
# Protocol: as §1, §2, §3, §4
# [3] = tested on: Non-small cell lung cancer cell lines
# Protocol: as §1, §2, §3, §4
# [4] = tested on: Leukemia cancer cell lines
# Protocol: as §1, §2, §3, §4
# [5] = tested on: Prostate cancer cell lines
# Protocol: as §1, §2, §3, §4
Compound,Log GI50 (concentration in mol/L causing 50% growth inhibition) [1] [mol/L],Log GI50 (concentration in mol/L causing 50% growth inhibition) [2] [mol/L],Log GI50 (concentration in mol/L causing 50% growth inhibition) (Renal cancer cell lines) [mol/L],Log GI50 (concentration in mol/L causing 50% growth inhibition) (Colon cancer cell lines) [mol/L],Log GI50 (concentration in mol/L causing 50% growth inhibition) (Breast cancer cell lines) [mol/L],Log GI50 (concentration in mol/L causing 50% growth inhibition) (CNS cancer cell lines) [mol/L],Log GI50 (concentration in mol/L causing 50% growth inhibition) [3] [mol/L],Log GI50 (concentration in mol/L causing 50% growth inhibition) [4] [mol/L],Log GI50 (concentration in mol/L causing 50% growth inhibition) [5] [mol/L]
"COc1cc(C=CC(=O)c2ccc(F)cc2)ccc1OCCCCCOc1cc2c(cc1OC)C(=O)N1CCC[C@H]1C=N2 [6c, 7-Methoxy-8-{5-[1-(4-fluorophenyl)-3-(4-hydroxy-3-methoxyphenyl)-2-propen-1-one]pentyl}-oxy-(11aS)-1,2,3,11a-5H-pyrrolo[2,1-c][1,4]benzodiazepin-5-one]",−6.38,−4.60,−6.39,−6.76,−6.31,−5.68,−6.38,−6.59,−5.05
"COc1cc(C=CC(=O)c2c(C)nc3ccccc3c2C)ccc1OCCCOc1cc2c(cc1OC)C(=O)N1CCC[C@H]1C=N2 [10a, 7-Methoxy-8-{3-[3-(4-hydroxy-3-methoxyphenyl)-1-(2,4-dimethyl-3-quinolyl)-2-propen-1-one]propyl}-oxy-(11aS)-1,2,3,11a-5H-pyrrolo[2,1-c][1,4]benzodiazepin-5-one]",−6.38,−5.10,−6.39,−6.76,−6.31,−6.61,−6.79,−6.88,−5.05
"COc1cc(C=CC(=O)c2c(C)nc3ccccc3c2C)ccc1OCCCCOc1cc2c(cc1OC)C(=O)N1CCC[C@H]1C=N2 [10b, 7-Methoxy-8-{4-[3-(4-hydroxy-3-methoxyphenyl)-1-(2,4-dimethyl-3-quinolyl)-2-propen-1-one]butyl}-oxy-(11aS)-1,2,3,11a-5H-pyrrolo[2,1-c][1,4]benzodiazepin-5-one]",−6.59,−5.28,−6.17,−6.41,−6.52,−6.16,−6.87,−6.94,−5.85
"COc1cc(C=CC(=O)c2ccc(F)cc2)ccc1OCCCCOc1cc2c(cc1OC)C(=O)N1CCC[C@H]1C=N2 [6b, 7-Methoxy-8-{4-[1-(4-fluorophenyl)-3-(4-hydroxy-3-methoxyphenyl)-2-propen-1-one]butyl}-oxy-(11aS)-1,2,3,11a-5H-pyrrolo[2,1-c][1,4]benzodiazepin-5-one]",−6.65,−5.56,−6.67,−6.53,−6.57,−5.91,−6.84,−6.84,−5.63

# — patent US8461150B2, “Chalcone linked pyrrolo[2,1-c][1, 4]benzodiazepine hybrids as potential anticancer agents and process for the preparation thereof” (Council of Scientific & Industrial Research, priority 2008, dated 2013)
